The results in this text go back to PubChem BioAssay (NCI).

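Step 1: Grow cells in 96-well plates. Step 2: Expose to compound for 48 hours at 5 concentrations. Step 3: Interpolate endpoints linearly; if unreached, use highest concentration. TGI: total growth inhibition.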

Some test systems named below: SK-MEL-5 melanoma; SW-620 colon; HOP-62 NSCLC; SK-MEL-28 melanoma; 786-0 renal; K-562 leukemia; A498 renal; OVCAR-4 ovarian; RXF 393 renal; DU-145 prostate; M14 melanoma.
What all share (assay): NCI anticancer screen, dose series, 48 h

Consider `N=C(N)SCc1ccc(Cl)cc1Cl` (tested in a mixture with another compound), for which the TGI turned out to be 29.2 µM with SK-MEL-5 melanoma; 37.6 µM in the experiment with SW-620 colon; 30.2 µM in the experiment with HOP-62 NSCLC; 45.3 µM in the experiment with SK-MEL-28 melanoma; 26.9 µM in the experiment on 786-0 renal; 25.5 µM with K-562 leukemia. In addition, the TGI in the experiment on A498 renal came out at 27.5 µM; in the experiment with OVCAR-4 ovarian, 38.8 µM; with RXF 393 renal, 27.9 µM; in the experiment with DU-145 prostate, 29.8 µM; in the experiment with M14 melanoma, 26.9 µM.
Turning to `Nc1nc(Cl)cc(NCCC2(CO)CCC2)n1`, the TGI with SK-MEL-5 melanoma, in the experiment on SW-620 colon, in the experiment with HOP-62 NSCLC, with SK-MEL-28 melanoma, in the experiment on 786-0 renal and with K-562 leukemia was greater than 100 µM throughout. In addition, the TGI in the experiment with A498 renal, in the experiment on OVCAR-4 ovarian, in the experiment with RXF 393 renal, in the experiment with DU-145 prostate and in the experiment on M14 melanoma was greater than 100 µM each time.
For the compound `COc1ccc(/C=C2\N=C(c3ccccc3)N(N=C3NC(=O)CC(=O)N3)C2=O)cc1`, the TGI in the experiment with SK-MEL-5 melanoma, with SW-620 colon, in the experiment on HOP-62 NSCLC, in the experiment with SK-MEL-28 melanoma, in the experiment with 786-0 renal and in the experiment with K-562 leukemia was greater than 100 µM throughout. Further, the TGI with A498 renal, in the experiment with OVCAR-4 ovarian, with RXF 393 renal, in the experiment with DU-145 prostate and with M14 melanoma was greater than 100 µM each time.
Turning to `Cn1c2ccccc2c2c(=O)[nH]c(=O)[nH]c21`, the TGI in the experiment with SK-MEL-5 melanoma, in the experiment with SW-620 colon, with HOP-62 NSCLC, with SK-MEL-28 melanoma, in the experiment on 786-0 renal and in the experiment with K-562 leukemia was greater than 100 µM each time. For the same compound, the TGI in the experiment on A498 renal, with RXF 393 renal, in the experiment with DU-145 prostate and in the experiment with M14 melanoma was greater than 100 µM throughout.
`CSc1c(C#N)c(N)nc2c(N=Nc3ccc(Cl)cc3)c(N)nn12`: the TGI is 35 µM in the experiment on SK-MEL-5 melanoma; 4.49 µM in the experiment with SW-620 colon; 28.6 µM in the experiment on HOP-62 NSCLC; 7.57 µM in the experiment on SK-MEL-28 melanoma; 7.1 µM in the experiment with 786-0 renal; 4.75 µM in the experiment on K-562 leukemia. Besides, the TGI is greater than 100 µM with A498 renal; 6.68 µM in the experiment with OVCAR-4 ovarian; 5.79 µM in the experiment with RXF 393 renal; 5.7 µM in the experiment with DU-145 prostate; 47.6 µM in the experiment with M14 melanoma.
On to `CC1C2CC(C(S(=O)(=O)N3CCOCC3)/C2=N\O)C1(C)C` (configuration not stated), for which the TGI with SK-MEL-5 melanoma, in the experiment with SW-620 colon, in the experiment on HOP-62 NSCLC, in the experiment on SK-MEL-28 melanoma, in the experiment with 786-0 renal and in the experiment with K-562 leukemia was greater than 100 µM each time. The TGI in the experiment with A498 renal, with OVCAR-4 ovarian, with RXF 393 renal, with DU-145 prostate and in the experiment on M14 melanoma was greater than 100 µM each time.
Consider `Cc1cc(C)nc(SC(C)C(=O)N/N=C/c2ccc(OCc3ccccc3)cc2)n1` (configuration not stated), for which the TGI with SK-MEL-5 melanoma was 20.5 µM; with SW-620 colon, greater than 100 µM; in the experiment on HOP-62 NSCLC, greater than 100 µM; with SK-MEL-28 melanoma, greater than 100 µM; with 786-0 renal, greater than 100 µM; with K-562 leukemia, greater than 100 µM. Also, the TGI in the experiment with A498 renal is greater than 100 µM; with OVCAR-4 ovarian, greater than 100 µM; in the experiment on RXF 393 renal it was 66.6 µM; with DU-145 prostate, greater than 100 µM; in the experiment on M14 melanoma it was greater than 100 µM.
As for `COc1ccc(/C=C2\CCC(CNc3ccc(OC)cc3)C2=O)cc1` (configuration not stated), the TGI was 35.2 µM in the experiment on SK-MEL-5 melanoma; 12.9 µM with SW-620 colon; greater than 100 µM in the experiment on HOP-62 NSCLC; 37.5 µM with SK-MEL-28 melanoma; 23.2 µM with 786-0 renal; greater than 33.3 µM in the experiment on K-562 leukemia. In addition, the TGI with A498 renal is greater than 66 µM; in the experiment on OVCAR-4 ovarian, 45.7 µM; with RXF 393 renal, 29.9 µM; in the experiment with DU-145 prostate it was greater than 65.4 µM; with M14 melanoma it was 34.9 µM.
Consider `CC(=O)OCC1OC(SC2OC(COC(C)=O)C(OC(C)=O)C(OC(C)=O)C2OC(C)=O)C(OC(C)=O)C(OC(C)=O)C1OC(C)=O` (configuration not stated), for which the TGI in the experiment with SK-MEL-5 melanoma, in the experiment on SW-620 colon, with HOP-62 NSCLC, in the experiment with SK-MEL-28 melanoma, with 786-0 renal and with K-562 leukemia was greater than 100 µM throughout. The TGI with A498 renal, with OVCAR-4 ovarian, with RXF 393 renal and with DU-145 prostate was greater than 100 µM in each case.
For the compound `COC(=O)/C=C/c1ccc2c(c1)CC1(C2)Cc2cc3c(cc2C1=O)CCC3` (configuration not stated), the TGI in the experiment with SK-MEL-5 melanoma was greater than 100 µM; with SW-620 colon it was greater than 100 µM; with SK-MEL-28 melanoma, greater than 100 µM; with 786-0 renal it was 68.7 µM; in the experiment with K-562 leukemia, greater than 100 µM; in the experiment with A498 renal, greater than 100 µM. Moreover, the TGI in the experiment with OVCAR-4 ovarian is greater than 100 µM; in the experiment on RXF 393 renal it was 84.9 µM; in the experiment on DU-145 prostate it was greater than 100 µM; with M14 melanoma, greater than 100 µM.
In the case of `O=c1oc2cc(O)ccc2c(O)c1C(c1cccnc1)c1c(O)c2ccc(O)cc2oc1=O`, the TGI with SK-MEL-5 melanoma, with SW-620 colon, in the experiment on HOP-62 NSCLC, with SK-MEL-28 melanoma, in the experiment on 786-0 renal and with K-562 leukemia was greater than 100 µM each time. For the same compound, the TGI in the experiment with A498 renal, in the experiment on RXF 393 renal, in the experiment with DU-145 prostate and with M14 melanoma was greater than 100 µM in each case.
Take `CN1C(=O)[C@@H]2[C@@H]3c4ccccc4N(S(=O)(=O)C(F)(F)F)[C@@H]3c3[nH]c4ccccc4c3[C@@H]2C1=O`: the TGI with SK-MEL-5 melanoma, in the experiment on SW-620 colon, with HOP-62 NSCLC, in the experiment with SK-MEL-28 melanoma, in the experiment with 786-0 renal and in the experiment with K-562 leukemia was greater than 100 µM each time. Moreover, the TGI in the experiment with A498 renal, in the experiment on OVCAR-4 ovarian, in the experiment on RXF 393 renal and with DU-145 prostate was greater than 100 µM throughout.
Take `CSCCCNC(=O)c1csc(-c2csc(C(CNC(=O)OC(C)(C)C)CNC(=O)OC(C)(C)C)n2)n1`: the TGI in the experiment on SK-MEL-5 melanoma, with SW-620 colon, with HOP-62 NSCLC, with 786-0 renal, in the experiment with K-562 leukemia and with A498 renal was greater than 100 µM throughout. The TGI in the experiment on OVCAR-4 ovarian, in the experiment with RXF 393 renal, in the experiment on DU-145 prostate and in the experiment on M14 melanoma was greater than 100 µM in each case.
